“Also recorded” adds a separate entry of the source.
What was measured:
U2OS DR-GFP cells = assay: DR-GFP (HR) assay; format: cell-based
Description: 5 × 10^4 U2OS (DR-GFP) cells were seeded into 12-well plates, 24 h later cells were treated with the indicated siRNAs or inhibitors and, 24 h later, transfected with 150 ng of an I-SceI vector using JetPEI or JetPRIME (Polyplus transfections). The next day, the medium was changed; 24 h after this, cells were harvested by trypsinization and washed with PBS, and the GFP signal was measured by flow cytometry on a FACS Navios (as described above). The frequency of repair in cells treated with inhibitors or transfected with the various siRNAs was calculated relative to cells treated with DMSO or transfected with control siRNA.

U2OS cells [1] = assay: IR-induced RAD51 / RPA32 foci, confocal; format: cell-based; details: in combination with IR
Description: (§1) Cells were grown on sterilized coverslips and fixed with 4% paraformaldehyde (PFA) (Santa Cruz) and 2% sucrose (Sigma Aldrich) for 15 min at room temperature. They were then permeabilized with 0.2% NP-40 (Thermo Scientific) for 10 min at room temperature followed by 30 min of blocking in blocking buffer (2 or 3% BSA, 5% glycerol, 0.1% Tween 20 (Sigma Aldrich)). Coverslips were subsequently incubated for 1, 2, or 24 h in primary antibody and 40 min in secondary antibody diluted in blocking buffer, DNA was stained with DAPI for 10 min. The coverslips were mounted with Prolonged Gold mounting medium (Invitrogen). Images were acquired with a Zeiss LSM 780 microscope using a 40× or 63× oil immersion lens and processed in ImageJ and CellProfiler.
To visualize PFKFB3, RPA32, RAD51, BRCA1, 53BP1, and RRM2 IRIF, the cells were first washed with PBS and then incubated for 5 min at room temperature with cytoskeleton (CSK) buffer containing 10 mM PIPES pH 7.0 (Sigma Aldrich), 100 mM NaCl (EMD Millipore), 300 mM sucrose (Sigma Aldrich), 3 mM MgCl2 (Sigma Aldrich), and 0.7% Triton X-100 (Sigma Aldrich). After these treatments, the cells were washed once again with PBS and then fixed in 4% PFA with 2% sucrose.

U2OS cells [2] = assay: Cell cycle analysis (propidium iodide, flow cytometry); format: cell-based; details: 24 h post-IR
Description: For cell cycle analysis, cells were treated or transfected with siRNA as described and harvested at the indicated time points with trypsin. For studies using IR, cells were exposed to IR with 2 Gy, and harvested at the indicated time points with trypsin. The cells were washed in PBS and fixed with 70% ethanol in PBS at 4 °C for 1 h and then stored at −20 °C until staining. Ethanol was removed by centrifugation and cells were then washed in PBS before staining DNA with propidium iodide (PI) solution containing 40 μg/mL PI, 100 μg/mL RNase A, and 0.1% Triton X-100 (Sigma Aldrich). Cells were analyzed by flow cytometry on a FACS Navios (Beckman Coulter) using Kaluza software.

PFKFB3 = PFKFB3 (Homo sapiens, UniProt Q16875); assay: ADP-Glo kinase activity assay, PFKFB3; format: biochemical; details: in vitro enzymatic assay
Chain of PFKFB3 (Q16875 whole entry): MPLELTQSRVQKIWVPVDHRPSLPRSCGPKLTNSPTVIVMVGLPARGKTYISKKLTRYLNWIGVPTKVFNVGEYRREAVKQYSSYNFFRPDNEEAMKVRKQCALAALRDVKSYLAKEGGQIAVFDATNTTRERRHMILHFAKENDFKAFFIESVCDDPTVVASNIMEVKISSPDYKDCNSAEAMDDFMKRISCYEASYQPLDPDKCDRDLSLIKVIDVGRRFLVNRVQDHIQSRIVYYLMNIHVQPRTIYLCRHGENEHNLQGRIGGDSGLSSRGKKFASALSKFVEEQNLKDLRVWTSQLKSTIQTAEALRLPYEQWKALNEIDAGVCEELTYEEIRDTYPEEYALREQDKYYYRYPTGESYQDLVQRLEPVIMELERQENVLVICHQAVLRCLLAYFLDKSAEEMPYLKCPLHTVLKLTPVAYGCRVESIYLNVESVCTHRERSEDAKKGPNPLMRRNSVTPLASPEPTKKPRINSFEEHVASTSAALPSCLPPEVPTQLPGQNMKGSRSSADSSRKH
Description: The kinase activity of the bi-functional enzyme was quantified based on the production of ADP and F-2,6-P2 from ATP by ADP-GloTM Kinase Assay (Promega). The assay was performed in two steps; first, after the kinase reaction, an equal volume of ADP-GloTM Reagent was added to terminate the kinase reaction and deplete the remaining ATP. Second, the Kinase Detection Reagent was added to simultaneously convert ADP to ATP and allow the newly synthesized ATP to be measured using a luciferase/luciferin reaction. The light generated was measured using a luminescence counter (1450 MicroBeta TriLux). The assay was performed in white 384-well plates (OptiPlate, 6007299, PerkinElmer) by consecutive additions of a test compound solution (0.1 µL, serial diluted in DMSO from compound DMSO stock solution and dispensed by acoustic dispensing from UV-star 384-well plate 7360153, VWR), enzyme solution (5 µL) and substrate (fructose-6-phosphate (F6P) and adenosine-5′-triphosphate (ATP)) containing solution (5 µL). […] Four reference dose–response curves, one of them being the QC compound, were included and serial diluted as the test compounds. The final concentrations of all reagents per well were 50 mM Tris–HCl at pH 8.0, 10 mM MgCl2, 5 mM NaPi at pH 8.0, 81.48 nM PFKFB3 or 145 nM PFKFB4, 8 µM ATP, 100 µM F6P (acid treated and then neutralized to remove any contaminating F-2,6-P2[34]), 0.005% Tween-20 and 1 mM dithiothreitol. Enzyme, compounds, and controls were pre-incubated at room temperature for 15 min before the addition of substrate solution. The enzymatic reaction was allowed to proceed for 20 min and the reaction was terminated by the addition of ADP-GloTM Reagent (10 µL) to all wells followed by 40 min incubation at room temperature. […] The inhibitory potency or IC50 values of test compounds on the kinase activity of the enzymes were calculated using a four-parameter model (model 205) in XLfit (IDBS ActivityBase XE Runner).

U2OS cells [3] = assay: IR-induced nuclear recruitment of PFKFB3; format: cell-based; details: 2 h prior to IR
Description: as §1

U2OS cells [4] = assay: IR-induced Mre11 / Nbs1 foci formation; format: cell-based; details: treatment prior to IR (6 Gy, 2 h recovery)
Description: as §1

Row | inhibition of recombinant PFKFB3 kinase activity (in words) (PFKFB3) | SMILES | effect on HR activity (in words) (U2OS DR-GFP cells) | IR-induced recruitment of RPA32 and RAD51 into repair foci (in words) (U2OS cells [1]) | accumulation of cells in G2/M phase upon IR (in words) (U2OS cells [2]) | IR-induced recruitment of PFKFB3 (in words) (U2OS cells [3]) | IR-induced Mre11 or Nbs1 foci formation (in words) (U2OS cells [4])
1 | could not achieve an IC50 value | O=C(C=Cc1cccnc1)c1ccncc1 [3-PO, 3-(3-pyridinyl)-1-(4-pyridinyl)-2-propen-1-one, reference compound] | did not decrease HR activity; also recorded: without affecting HR activity | unaffected | not seen |  | 
2 |  | N=C1NC(=O)/C(=C/c2ccc(O)cc2)S1 [Mirin, reference compound] |  |  |  | blocked | completely blocked
